For orientation: Kb means the affinity of an antagonist, worked out from how it opposes an agonist.

The target in one assay is T1, histamine H3 receptor (Homo sapiens, UniProt Q9Y5N1).
T1 construct: expressed in transfected cells; host or cells: CHO K1 cells with pSwitch/pGeneH3 (GeneSwitch, mifepristone-induced), clone 3H3; membrane preparation
The assay is described as follows: Histamine H3 functional antagonist assay (GTPγS, membranes). The format is biochemical. As to conditions: CHO K1 membranes, [35S]-GTPγS, histamine at EC80; read-out: average pKi (pKb) at H3 (converted). A digest of the protocol: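 Membranes came from CHO K1 cells with mifepristone-inducible (10 nM, 18 h) human H3 receptor expression, clone 3H3. Test compounds in DMSO were combined with WGA polystyrene LeadSeeker SPA beads, membranes and GDP.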
(GTPγS resists hydrolysis and so accumulates on activated G proteins.)

The target in assay [1] is T2, human H1 receptor (Homo sapiens, UniProt P35367).
T2 construct: expressed in transfected cells
Nature of the assay: Histamine H1 functional antagonist assay: determination of functional pKi values (FLIPR). The format is cell-based. To be noted: CHO cells expressing human H1 receptor, histamine at EC80, read-out: average pKi (pKb) at H1 (converted). A digest of the protocol:
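Functional affinities come from concentration-effect curves of inhibited histamine (EC80) calcium responses read by FLIPR. Compound sat 30 min at 37° C on Fluo-4-loaded CHO cells stably expressing human H1 receptor, in probenecid-containing Tyrodes buffer, pH 7.40.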

Assay [2] concerns the target T2, human H1 receptor. The assay is described as follows: Histamine H1 functional antagonist assay: determination of antagonist pA2 (FLIPR). The format is cell-based. To be noted: histamine H1 receptor expressing CHO cells, histamine concentration response curves. The procedure: (§1) The human H1 receptor is cloned using known procedures described in the literature [Biochem. Biophys. Res. Commun., 201(2):894 (1994)]. Chinese hamster ovary (CHO) cells stably expressing the human H1 receptor are generated according to known procedures described in the literature [Br. J. Pharmacol., 117(6):1071 (1996)].
The histamine H1 receptor expressing CHO cells are seeded into non-coated black-walled clear bottom 96-well tissue culture plates as described above.
Following overnight culture, growth medium is removed from each well, washed with 200 μl PBS and is replaced with 50 μl loading dye (250 μM Brilliant Black, 1 μM Fluo-4 diluted in Tyrodes buffer+probenecid (145 mM NaCl, 2.5 mM KCl, 10 mM HEPES, 10 mM D-glucose, 1.2 mM MgCl2, 1.5 mM CaCl2, 2.5 mM probenecid, pH adjusted to 7.40 with NaOH 1.0 M)). Cells are incubated for 45 min at 37° C. The loading buffer is removed and the cells are washed as above, and 90 μl of Tyrodes buffer+probenecid is added to each well. 10 μl of test compound, diluted to the required concentration in Tyrodes buffer+probenecid (or 10 μl Tyrodes buffer+probenecid as a control) is added to each well and the plate is incubated for 30 min at 37° C., 5% CO2.
The plates are then placed into a FLIPR™ (Molecular Devices, UK) to monitor cell fluorescence (λex=488 nm, λEM=540 nm) in the manner described in Sullivan et al., (In: Lambert DG (ed.), Calcium Signaling Protocols, New Jersey: Humana Press, 1999, 125-136) before and after the addition of 50 μl histamine over a concentration range of 1 mM-0.1 nM. The resultant concentration response curves are analysed by non-linear regression using a standard four parameter logistic equation to determine the histamine EC50, the concentration of histamine required to produce a response of 50% of the maximum response to histamine. The antagonist pA2 is calculated using the following standard equation: pA2=[…] where DR=dose ratio, defined as EC50antagonist-treated/EC50control and [B]=concentration of antagonist.

In assay [3] the target is T2, human H1 receptor. The assay is described as follows: Histamine H1 functional antagonist assay: antagonist duration. The format is cell-based. As to conditions: at one or more time points, after washout. How it is done: as §1
To determine the antagonist duration, cells are cultured overnight in non-coated black-walled clear bottom 96-well tissue culture plates, are washed with PBS and are incubated with a concentration of antagonist chosen to give an approximate DR in the range 30-300. Following the 30 min antagonist incubation period, the cells are washed two or three times with 200 μl of PBS and then 100 μl Tyrodes buffer is added to each well to initiate antagonist dissociation. Following incubation for predetermined times, typically 30-270 min at 37° C., the cells are then washed again with 200 μl PBS and are incubated with 100 μl Tyrodes buffer containing Brilliant Black, probenecid and Fluo-4 for 45 min at 37° C., as described above. After this period, the cells are challenged with histamine in the FLIPR™ as described above. The dose ratio at each time point is used to determine the fractional H1 receptor occupancy by the following equation: fractional receptor occupancy=(DR-1)/DR. The decrease in receptor occupancy over time approximates to a straight line and is analysed by linear regression. The slope of this straight line fit is used as an index of the dissociation rate of the antagonist. The dose ratios for antagonist treated cells and for antagonist treated and washed cells at each time point are used to calculate a relative dose ratio (rel DR) which is also used as an index of antagonist duration. Antagonists with long duration of action produce rel DR values close to 1, and antagonists with short duration of action produce rel DR values that approaches the dose ratio value obtained for antagonist treatment alone.

T2 sequence (P35367 whole entry): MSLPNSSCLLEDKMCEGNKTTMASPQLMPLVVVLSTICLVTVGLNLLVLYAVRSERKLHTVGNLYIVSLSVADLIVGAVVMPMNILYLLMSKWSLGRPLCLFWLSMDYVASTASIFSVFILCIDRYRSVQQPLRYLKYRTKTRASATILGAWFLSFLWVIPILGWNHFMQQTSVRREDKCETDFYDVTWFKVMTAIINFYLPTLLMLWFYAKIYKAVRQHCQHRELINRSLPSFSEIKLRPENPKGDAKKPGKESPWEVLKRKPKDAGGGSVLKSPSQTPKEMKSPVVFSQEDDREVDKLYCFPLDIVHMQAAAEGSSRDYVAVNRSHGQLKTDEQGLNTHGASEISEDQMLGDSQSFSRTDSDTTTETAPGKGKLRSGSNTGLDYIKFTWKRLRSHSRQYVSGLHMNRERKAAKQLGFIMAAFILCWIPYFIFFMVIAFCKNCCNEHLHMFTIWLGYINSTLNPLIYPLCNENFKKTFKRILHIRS
T1 sequence (Q9Y5N1 whole entry, species assumed): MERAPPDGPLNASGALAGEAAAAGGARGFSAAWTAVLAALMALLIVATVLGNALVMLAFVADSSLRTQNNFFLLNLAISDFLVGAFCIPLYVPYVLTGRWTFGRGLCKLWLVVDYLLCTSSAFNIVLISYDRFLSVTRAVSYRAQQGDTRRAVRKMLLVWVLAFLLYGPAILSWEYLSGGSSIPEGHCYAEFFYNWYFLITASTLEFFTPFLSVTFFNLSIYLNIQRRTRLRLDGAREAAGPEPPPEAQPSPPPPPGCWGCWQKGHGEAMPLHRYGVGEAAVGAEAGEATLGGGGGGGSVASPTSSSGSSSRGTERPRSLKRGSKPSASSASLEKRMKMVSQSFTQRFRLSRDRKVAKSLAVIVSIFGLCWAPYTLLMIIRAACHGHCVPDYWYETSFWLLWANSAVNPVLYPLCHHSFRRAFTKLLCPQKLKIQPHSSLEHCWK

Turning to `CCCCc1cc(O[C@H]2CCN(CCC(=O)N3CCCCC3)C2)c2ncccc2c1` [Example 38, 6-butyl-8-({(3S)-1-[3-oxo-3-(1-piperidinyl)propyl]-3-pyrrolidinyl}oxy)quinoline], the Ki on histamine H3 receptor was roughly 100 nM; at human H1 receptor [1] it was roughly 1000 nM. For the same molecule, the Kb on human H1 receptor [2] is less than 100 nM.

Consider `CCCCc1cc(O[C@H]2CCN(CCC(=O)N(CC)CC)C2)c2ncccc2c1` [Example 40, 3-{(3S)-3-[(6-butyl-8-quinolinyl)oxy]-1-pyrrolidinyl}-N,N-diethylpropanamide], for which the figures for the Ki at histamine H3 receptor and on human H1 receptor [1] were greater than 316 nM and roughly 1000 nM, respectively. Also, the Kb on human H1 receptor [2] is less than 100 nM.

Turning to `CCCCc1cc(OC2CCN(CCNC(=O)C(C)(C)C)CC2)c2ncccc2c1` [Example 72, N-(2-{4-[(6-butyl-8-quinolinyl)oxy]-1-piperidinyl}ethyl)-2,2-dimethyl propanamide], the Ki on histamine H3 receptor is greater than 316 nM; on human H1 receptor [1], less than 10 nM. Also, at human H1 receptor [3], the “duration of action compared with azelastine” value was “longer duration of action than azelastine”.

Regarding `CCCCc1cc(OC2CCN(C[C@H]3CC[C@H](C(=O)N4CCCCC4)CC3)CC2)c2ncccc2c1` [Example 44, 6-Butyl-8-[(1-{[trans-4-(1-piperidinylcarbonyl)cyclohexyl]methyl}-4-piperidinyl)oxy]quinoline], the Ki at histamine H3 receptor is greater than 316 nM; on human H1 receptor [1] it was less than 10 nM. Further, the “duration of action compared with azelastine” value at human H1 receptor [3] is listed as “longer duration of action than azelastine”.

Turning to `CCCCc1cc(OC2CCN(C[C@H]3CC[C@H](C(=O)N(CC)CC)CC3)CC2)c2ncccc2c1` [Example 43, Trans-4-({4-[(6-butyl-8-quinolinyl)oxy]-1-piperidinyl}methyl)-N,N-diethylcyclohexane carboxamide], the values for the Ki at histamine H3 receptor and on human H1 receptor [1] were greater than 316 nM and less than 10 nM, respectively. The “duration of action compared with azelastine” value on human H1 receptor [3] is listed as “longer duration of action than azelastine”.

Turning to `CCCCc1cc(O[C@H]2CCN(CCCC(=O)NC(C)(C)C)C2)c2ncccc2c1` [Example 41, 4-{(3S)-3-[(6-butyl-8-quinolinyl)oxy]-1-pyrrolidinyl}-N-(1,1-dimethylethyl) butanamide], the Ki on histamine H3 receptor is greater than 316 nM; on human H1 receptor [1], less than 100 nM. In addition, the Kb on human H1 receptor [2] is less than 100 nM.

Regarding `CCCCc1cc(OC2CCN(CCNC(=O)CCOC)CC2)c2ncccc2c1` [Example 80, N-(2-{4-[(6-butyl-8-quinolinyl)oxy]-1-piperidinyl}ethyl)-3-(methyloxy) propanamide], the Ki is greater than 316 nM on histamine H3 receptor and less than 10 nM at human H1 receptor [1].

The record behind these values is patent US20100222349A1, “QUINOLINE DERIVATIVES USED TO TREAT INFLAMMATORY AND ALLERGIC DISEASES” (Glaxo Group Limited, priority 2007, published 2010).
